Test results: US12344587B2, “Synthetic retinoids for use in RAR activation” (UNIVERSITY OF DURHAM, priority 2019, dated 2025)
Converted amounts (≈) assume the structure as drawn.

How the values were obtained:
[1] = tested on: ERK1/2; experiment: ERK1/2 phosphorylation assay, AlphaLISA SureFire Ultra (non-genomic activity); format: cell-based; set-up: Non-genomic activity (ERK½ Phosphorylation Assay) Efficacy (Emax): unit not given here; settings: SH-SY5Y cells; for EC50: Homo sapiens, 0.5 h, read-out: Non-genomic activity (ERK½ Phosphorylation Assay) Potency (EC50); for EC50 / Non-genomic activity (ERK½ Phosphorylation Assay) Efficacy (Emax): serum-free, 30 minutes stimulation; for Erk 1/2 phosphorylation potency/efficacy compared to retinoic acid: versus retinoic acid
Description: The non-genomic activity of synthetic retinoids was evaluated by measuring their ability to induce phosphorylation of ERK1/2 using the AlphaLISA® SureFire® Ultra ERK1/2 kit.
In this assay, SH-SY5Y cells (100,000 cells/well) were plated in 96-well plates and serum-starved in DMEM for 24 hours. Retinoids were tested at concentrations from 10−5 M to 10−11 M and at a final concentration of 0.1% DMSO in the medium. The assay was carried out on the SH-SY5Y cells in serum-free DMEM, cells were stimulated by retinoid for 30 minutes at 37° C.
At the end of the assay, the medium was removed, and cells were lysed in 50 μl of freshly prepared 1× lysis buffer (supplied in the kit). The 96-well plate was agitated on an orbital shaker (SO1, Stuart Scientific) at approximately 350 rpm for 10 minutes at room temperature.
In the meantime, the activation buffer was diluted 25-fold in the reaction buffers. Under green light in a dark room, the acceptor beads were diluted 50-fold in the freshly prepared reaction mix while the donor beads were diluted 50-fold in dilution buffer to obtain two final reaction mixtures.
10 μl of cell lysate was then transferred per well into 384-well white Proxiplates plates (PerkinElmer) and 5 μl of each prepared acceptor and donor reaction mixture was added under green light in a dark room. Plates were wrapped with aluminium foil and incubated at room temperature for at least 3 hours. Readings were taken using an Envision system (PerkinElmer Life Sciences) using the AlphaScreen® settings.

[2] = tested on: retinoic acid response element (RARE); experiment: X-Gal RA based reporter assay (genomic activity); format: cell-based; settings: for Genomic Activity (X-Gal RA Based Reporter Assay) Efficacy (Emax) / EC50: Sil-15 reporter cells, overnight incubation; for EC50: read-out: Genomic Activity (X-Gal RA Based Reporter Assay) Potency (EC50); for Genomic activity and potency compared to retinoic acid (ATRA): X-Gal assay, versus ATRA
Description: The genomic activity of synthetic retinoids was evaluated by determining their efficiency of inducing transcription using the X-Gal Assay. The X-Gal Assay utilizes Sil-15 reporter cells in which the transcription of the LacZ gene is under control of a promoter linked to a retinoic acid response element (RARE). After treatment of the reporter cells with retinoids, the ability of the compounds to induce transcription can be attained by monitoring and quantifying the activity of β-galactosidase produced by the reporter cells.
Sil-15 cells were plated at 100,000 cells per well in 96-well plates coated in 0.1% gelatin. The following day, serial dilutions of retinoid ligands, prepared in Dulbecco's Modified Eagle's Medium (DMEM) containing 10% foetal calf serum (FCS) were added at concentrations from 10^−6 M to 10^−14 M and the plates were incubated overnight. All concentrations for the ATRA standard curve and the other retinoid ligands were tested in triplicate.
The next day, the assay plates were washed twice with phosphate buffered saline (PBS), fixed with 100 μl per well of 1% glutaraldehyde and 1 mM MgCl2 in PBS for 15 minutes and washed twice with PBS. β-galactosidase activity was detected by the addition of 100 μl of freshly-prepared 0.2% X-Gal in 1 mM MgCl2, 3.3 mM potassium ferricyanide and 3.3 mM potassium ferrocyanide in PBS per well. Plates were incubated for 6 hours at 37° C. in 5% CO2 and colour change was detected by reading the plates at 650 nm on an Emax Precision Microplate Reader (Molecular Devices).

[3] = Turbidimetric aqueous solubility; format: physicochemical; settings: aqueous buffer, kinetic from dmso stock, 0.01 M phosphate buffered saline pH 7.4, 1% DMSO, 37° C.
Description: Test compound (10 mM in DMSO) is serially diluted to give solutions of 0.1, 0.3, 1 and 3 mM in DMSO. Each test compound concentration is then further diluted 1 in 100 in buffer (0.01 M phosphate buffered saline pH 7.4) so that the final DMSO concentration was 1% and the final test compound concentrations were 1, 3, 10, 30 and 100 μM. The experiment was performed at 37° C. and each concentration sample was incubated in 7 replicate wells. The plates were incubated for 2 hr at 37° C. before the absorbance was measured at 620 nm. The solubility of the sample was estimated from the concentration of test compound that produced an increase in absorbance above vehicle control (i.e., 1% DMSO in buffer).

[4] = tested on: MDR1; experiment: MDCK-MDR1 permeability assay; format: in vitro ADME; settings: dog, pH 7.4, 60 min
Description: Thus, this assay is a valuable in vitro surrogate for blood-brain permeability and CNS exposure
MDCK-MDR1 cells obtained from the NIH (Rockville, MD, USA) are used between passage numbers 6-30. Cells are seeded onto Millipore Multiscreen Transwell plates at 3.4×10^5 cells/cm^2. The cells are cultured in DMEM and media is changed on day 3. On day 4 the permeability study is performed. Cell culture and assay incubations are carried out at 37° C. in an atmosphere of 5% CO2 with a relative humidity of 95%. On the day of the assay, the monolayers are prepared by rinsing both apical and basolateral surfaces twice with Hanks Balanced Salt Solution (HBSS) at the desired pH warmed to 37° C. […] Test compound permeability is assessed in duplicate. […] Test and control compounds are quantified by LC-MS/MS cassette analysis using a 7-point calibration with appropriate dilution of the samples. The starting concentration (C0) is determined from the dosing solution and the experimental recovery calculated from C0 and both apical and basolateral compartment concentrations.
The permeability coefficient (Papp) for each compound is calculated from the following equation: […]
Where dQ/dt is the rate of permeation of the drug across the cells, C0 is the donor compartment concentration at time zero and A is the area of the cell monolayer. […] An efflux ratio (ER) is calculated from mean A-B and B-A data.

| EC50 [1] [nM] | EC50 [2] [nM] | solubility at 2 h [3] [µM] | Papp at 60 min, 10 μM [4] [×10⁻⁶ cm/s] | efflux ratio at 60 min, 10 μM ([4]; from mean A-B and B-A data, read-out: ER (efflux ratio)) | SMILES | Non-genomic activity (ERK½ Phosphorylation Assay) Efficacy (Emax) [1] | Erk 1/2 phosphorylation potency/efficacy compared to retinoic acid [1] | Genomic Activity (X-Gal RA Based Reporter Assay) Efficacy (Emax) [2] | Genomic activity and potency compared to retinoic acid (ATRA) [2] |
| --- | --- | --- | --- | --- | --- | --- | --- | --- | --- |
| 26.4 | 0.0581 | 20 (≈ 7.01 µg/mL) | – | – | CC1(C)CCC(C)(C)c2cc(C#Cc3ccc(C(=O)O)cc3F)ccc21 [DC526, 3-Fluoro-4-[2-(5,5,8,8-tetramethyl-5,6,7,8-tetrahydronaphthalen-2-yl)ethynyl]benzoic acid] | 50.22 | higher potency and efficacy | 149.1 | increased genomic activity and potency |
| 14.2 | 0.146 | 20 (≈ 6.67 µg/mL) | – | – | CC1(C)CCC(C)(C)c2cc(C#Cc3ccc(C(=O)O)nc3)ccc21 [DC528, 5-[2-(5,5,8,8-tetramethyl-5,6,7,8-tetrahydronaphthalen-2-yl)ethynyl]pyridine-2-carboxylic acid] | 69.15 | higher potency and efficacy | 206.5 | increased genomic activity and potency |
| 8.54 | 0.0697 | > 100 | 34.9 | 0.6 | CC1(C)CCC(C)(C)c2nc(C#Cc3ccc(C(=O)O)cc3)cnc21 [DC645, 4-[2-(5,5,8,8-Tetramethyl-5,6,7,8-tetrahydroquinoxalin-2-yl)ethynyl]benzoic acid] | 91.57 | higher potency and efficacy | 185.9 | increased genomic activity and potency |
